ChEMBL document CHEMBL1128803 (Bioorg Med Chem Lett, 1995)

Experiments:
Format in all cases: protein assay
[1] = molecular target: Phosphodiesterase 3 (Homo sapiens) (UniProt Q14432+Q13370); test: Inhibition of Phosphodiesterase 3 (PDE III) at 100 uM
Phosphodiesterase 4 [2] = molecular target: Phosphodiesterase 4 (Homo sapiens, UniProt P27815+Q08499+Q07343+Q08493); test: Inhibition of Phosphodiesterase 4
Phosphodiesterase 4 [3] = molecular target: Phosphodiesterase 4 (Mus musculus, UniProt Q8VBU5+Q3UEI1+O89084+Q01063); test: Inhibition of [3H]rolipram binding to Phosphodiesterase 4 (PDE IV)

| SMILES | inhibition [1] | IC50 (Phosphodiesterase 4 [2]) | IC50 (Phosphodiesterase 4 [3]) |
| --- | --- | --- | --- |
| COc1ccc(/C=C2/C(=O)Nc3ccccc32)cc1OC1CC2CCC1C2 (stereo unspecified) | 42% | 0.48 µM | 4.6 µM |
| COc1ccc(/C=C2/C(=O)N(C)c3ccc([N+](=O)[O-])cc32)cc1OC1CC2CCC1C2 (stereo unspecified) | 25% | 7.1 µM | 66 µM |
| COc1ccc(/C=C2\C(=O)N(C)c3ccc(Cl)cc32)cc1OC1CC2CCC1C2 (stereo unspecified) | -9% | 3.4 µM | 58 µM |
| COc1ccc(/C=C2\C(=O)N(C)c3ccc(Br)cc32)cc1OC1CC2CCC1C2 (stereo unspecified) | -7% | 3.6 µM | 57 µM |
| COc1ccc(C2CNC(=O)C2)cc1OC1CCCC1 (stereo unspecified) | 23% | – | – |

The remaining lines, values ahead:

| inhibition [1] | IC50 (Phosphodiesterase 4 [2]) | IC50 (Phosphodiesterase 4 [3]) | SMILES |
| --- | --- | --- | --- |
| 17% | 1.7 µM | 50 µM | COc1ccc(/C=C2\C(=O)Nc3ccc(Br)cc32)cc1OC1CC2CCC1C2 (stereo unspecified) |
| 18% | 1.2 µM | 62 µM | COc1ccc(/C=C2\C(=O)Nc3ccc([N+](=O)[O-])cc32)cc1OC1CC2CCC1C2 (stereo unspecified) |
| – | 3.7 µM | 3.2 µM | COc1ccc(/C=C2\C(=O)Nc3ccccc32)cc1OC1CC2CCC1C2 (stereo unspecified) |
